Reference: patent US20230406804A1, “PROTEIN KINASE INHIBITORS” (Xavier University of Louisiana, priority 2018, published 2023)
“Also recorded” adds a separate entry of the source.

Legend:
[1] = molecular target: T1, EGFR residue Y1068 (Homo sapiens, UniProt P00533); assay: Western blot of EGFR transphosphorylation; assay type: cell-based; conditions: 10 μM, 2 h; MCF7/pcDNA, MCF7/HER2, MCF7/HER2Δ16
T1 construct: endogenous in cells; host or cells: MCF-7/pcDNA, MCF-7/HER2, MCF-7/HER2Δ16
Source text: (§1) HER2 is a member of the erbB family of tyrosine kinases, which is comprised of four partial homologous transmembrane receptors: EGFR/HER1 (erbB1), HER2 (erbB2/neu), HER3 (erbB3), and HER4 (erbB4). […] Ligand binding induces homo- or hetero-dimerization through disulfide bond linkage, and leads to receptor activation and tyrosine auto-phosphorylation. HER2 is a preferred dimerization partner due to its high catalytic activity and forms potent heterodimers with EGFR and HER3. HER2, with its intrinsic kinase activity can transphosphorylate other members of the erbB family. HER2 and HERΔ16 are overexpressed in the breast cancer cell lines that have been used in this study, leading to the kinases being constitutively active. Upon dimerization, the constitutively active HER2 and HER2Δ16 receptors can transphosphorylate coexpressed EGFR. The levels of phosphorylated HER2 in the parental MCF-7 cell line were less, resulting in its lack of dimerization with EGFR and its transphosphorylation. Western blots were performed to determine the ability of the compounds to inhibit the activation of the HER2 receptor (FIG. 7). The total and phosphorylated protein were detected upon treatment of each of the cells lines with the compounds 6, 7, 8a+8b, 9, 15, 25, 26, 27 and 28 (2-methyl-4,6-dinitro-1H-indene-1,3(2H)-dione) along with the positive control lapatinib at 10 μM concentration for 2 h. […] Compounds 26 and 28 from FIG. 5 were used as negative controls.

[2] = system: HER2 residue Y1248; assay: Western blot of HER2 autophosphorylation; assay type: cell-based; conditions: 10 μM, 2 h; MCF7/pcDNA, MCF7/HER2, MCF7/HER2Δ16
Source text: as §1

[3] = system: MCF-7/HER2Δ16; assay: CellTiter-Glo cell viability, IC50; assay type: cell-based; conditions: Homo sapiens, MCF7, 48 h treatment, read-out: IC50 MCF-7/HER2D16
Description: (§2) The antagonistic activities of the compounds were tested in an estrogen receptor positive (ER+) breast cancer cell line, MCF7 breast cancer cell lines expressing HER2, HER2Δ16 and empty vector. Lapatinib was used as the positive control. The cells were treated with the compounds at 10 μM concentration for 48 h. After treatment, cell viability was tested using the CellTiter-Glo Assay (Promega). […] The […] best compounds 7, 9, the mixture of 8a+8b, 25 and 27 were then taken up for further studies.

[4] = system: MCF-7/pcDNA; assay: CellTiter-Glo cell viability, IC50; assay type: cell-based; conditions: Homo sapiens, MCF7, 48 h treatment
Description: as §2

[5] = system: MCF-7/HER2; assay: CellTiter-Glo cell viability, IC50; assay type: cell-based; conditions: Homo sapiens, MCF7, 48 h treatment
Description: as §2

[6] = system: BT20, MDA-MB-468, MDA-MB-231, SKBR3, BT474, SUM 190PT and SUM 225CWN; assay: Growth inhibition of a panel of breast cancer cell lines; assay type: cell-based; conditions: triple negative, trastuzumab sensitive and trastuzumab resistant cell lines; read-out: IC50 growth inhibition, range over breast cancer cell line panel
Source text: (§3) Compound 7 was taken up for further analysis of its ability to inhibit the growth of a panel of breast cancer cell lines of varied types. The panel included the triple negative cell lines BT20, MDA-MB-468 and MDA-MB-231, the trastuzumab sensitive cell lines SKBR3 and BT474, and the trastuzumab resistant cell lines SUM 190PT and SUM 225CWN (FIG. 9).

[7] = system: MDA-MB-231; assay: as above; assay type: cell-based
Source text: as §3

[8] = molecular target: TEK tyrosine kinase (Homo sapiens, UniProt Q02763); assay: Cross kinase panel high-throughput assay; assay type: biochemical
Description: (§4) Compound 7 was then subjected to a cross kinase panel high-throughput assay at 10 μM concentration, at Life Technologies, to determine the selectivity of kinase inhibition (FIG. 10). A panel of 120 disease relevant kinases (available with Life Technologies) were studied. 11 kinases were inhibited at 80% or more-protein kinase B 1/2 (also known as AKT1/2), Aurora kinases A/B (AurK A/B), checkpoint kinase 2 (CHEK2), feline sarcoma kinase (FES), fibroblast growth factor 1 (FGFR1), I kappa B kinase B/E (IKK B/E), mitogen activated protein kinase kinase 1 (MAP2K1), mitogen activated protein kinase kinase kinase 8 (MAP3K8), Never in Mitosis (NIMA) related kinase 2 (NEK2), polo-like kinase 1/3 (PLK1/3), serum/glucocorticoid regulated kinase 1 (SGK1) and TEK tyrosine kinase. All these kinases except for CHEK2 are reported to have tumorigenic roles in breast cancer.

[9] = molecular target: feline sarcoma kinase (FES) (Homo sapiens, UniProt P07332); assay: Cross kinase panel high-throughput assay; assay type: biochemical
Description: as §4

[10] = system: I kappa B kinase B/E (IKK B/E); assay: Cross kinase panel high-throughput assay; assay type: biochemical; conditions: 10 μM
Description: as §4

[11] = system: Aurora kinases A/B (AurK A/B); assay: Cross kinase panel high-throughput assay; assay type: biochemical; conditions: 10 μM
Description: as §4

[12] = molecular target: checkpoint kinase 2 (CHEK2) (Homo sapiens, UniProt O96017); assay: Cross kinase panel high-throughput assay; assay type: biochemical
Description: as §4

[13] = system: protein kinase B 1/2 (AKT1/2); assay: Cross kinase panel high-throughput assay; assay type: biochemical; conditions: 10 μM
Description: as §4

[14] = molecular target: T2, Never in Mitosis (NIMA) related kinase 2 (NEK2) (Homo sapiens, UniProt P51955); assay: Cross kinase panel high-throughput assay; assay type: biochemical
T2 sequence (P51955 1-445): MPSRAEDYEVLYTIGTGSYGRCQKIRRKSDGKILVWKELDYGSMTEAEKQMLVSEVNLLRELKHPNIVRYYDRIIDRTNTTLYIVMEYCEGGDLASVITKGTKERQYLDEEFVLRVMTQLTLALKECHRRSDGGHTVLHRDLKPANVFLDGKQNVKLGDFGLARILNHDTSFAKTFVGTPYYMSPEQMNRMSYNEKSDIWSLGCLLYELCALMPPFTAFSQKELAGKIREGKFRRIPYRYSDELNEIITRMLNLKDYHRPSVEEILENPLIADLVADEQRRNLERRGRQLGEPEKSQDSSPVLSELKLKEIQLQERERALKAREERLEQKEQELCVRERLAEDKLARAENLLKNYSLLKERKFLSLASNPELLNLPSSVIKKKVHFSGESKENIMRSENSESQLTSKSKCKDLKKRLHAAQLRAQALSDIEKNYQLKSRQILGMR
Description: as §4

[15] = molecular target: mitogen activated protein kinase kinase kinase 8 (MAP3K8) (Homo sapiens, UniProt P41279); assay: Cross kinase panel high-throughput assay; assay type: biochemical
Description: as §4

[16] = molecular target: T3, serum/glucocorticoid regulated kinase 1 (SGK1) (Homo sapiens, UniProt O00141); assay: Cross kinase panel high-throughput assay; assay type: biochemical
T3 sequence (O00141 1-431): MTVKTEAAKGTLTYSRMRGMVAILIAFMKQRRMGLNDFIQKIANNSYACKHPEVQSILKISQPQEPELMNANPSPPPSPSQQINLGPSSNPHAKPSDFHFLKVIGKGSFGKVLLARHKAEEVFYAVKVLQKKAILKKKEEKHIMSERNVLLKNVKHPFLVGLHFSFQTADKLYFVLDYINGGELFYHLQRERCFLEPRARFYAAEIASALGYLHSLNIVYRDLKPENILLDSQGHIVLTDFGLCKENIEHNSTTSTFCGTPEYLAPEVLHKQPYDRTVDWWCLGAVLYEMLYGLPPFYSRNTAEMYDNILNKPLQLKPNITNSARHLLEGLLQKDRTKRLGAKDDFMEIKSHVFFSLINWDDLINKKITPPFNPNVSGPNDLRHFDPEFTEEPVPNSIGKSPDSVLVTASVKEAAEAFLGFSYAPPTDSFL
Description: as §4

[17] = molecular target: fibroblast growth factor 1 (FGFR1) (Homo sapiens, UniProt P11362); assay: Cross kinase panel high-throughput assay; assay type: biochemical
Description: as §4

[18] = molecular target: mitogen activated protein kinase kinase 1 (MAP2K1) (Homo sapiens, UniProt Q02750); assay: Cross kinase panel high-throughput assay; assay type: biochemical
Description: as §4

[19] = system: polo-like kinase 1/3 (PLK1/3); assay: Cross kinase panel high-throughput assay; assay type: biochemical; conditions: 10 μM
Description: as §4

[20] = system: MCF7 breast cancer cell lines expressing HER2, HER2Δ16 and empty vector; assay: High-throughput cell viability screen at 10 μM (CellTiter-Glo); assay type: cell-based; conditions: for suppression of cell viability / inhibition in the high-throughput assay: 48 h
Description: The antagonistic activities of the compounds were tested in an estrogen receptor positive (ER+) breast cancer cell line, MCF7 breast cancer cell lines expressing HER2, HER2Δ16 and empty vector. Lapatinib was used as the positive control. The cells were treated with the compounds at 10 μM concentration for 48 h. After treatment, cell viability was tested using the CellTiter-Glo Assay (Promega).

T1 sequence (P00533 25-1210): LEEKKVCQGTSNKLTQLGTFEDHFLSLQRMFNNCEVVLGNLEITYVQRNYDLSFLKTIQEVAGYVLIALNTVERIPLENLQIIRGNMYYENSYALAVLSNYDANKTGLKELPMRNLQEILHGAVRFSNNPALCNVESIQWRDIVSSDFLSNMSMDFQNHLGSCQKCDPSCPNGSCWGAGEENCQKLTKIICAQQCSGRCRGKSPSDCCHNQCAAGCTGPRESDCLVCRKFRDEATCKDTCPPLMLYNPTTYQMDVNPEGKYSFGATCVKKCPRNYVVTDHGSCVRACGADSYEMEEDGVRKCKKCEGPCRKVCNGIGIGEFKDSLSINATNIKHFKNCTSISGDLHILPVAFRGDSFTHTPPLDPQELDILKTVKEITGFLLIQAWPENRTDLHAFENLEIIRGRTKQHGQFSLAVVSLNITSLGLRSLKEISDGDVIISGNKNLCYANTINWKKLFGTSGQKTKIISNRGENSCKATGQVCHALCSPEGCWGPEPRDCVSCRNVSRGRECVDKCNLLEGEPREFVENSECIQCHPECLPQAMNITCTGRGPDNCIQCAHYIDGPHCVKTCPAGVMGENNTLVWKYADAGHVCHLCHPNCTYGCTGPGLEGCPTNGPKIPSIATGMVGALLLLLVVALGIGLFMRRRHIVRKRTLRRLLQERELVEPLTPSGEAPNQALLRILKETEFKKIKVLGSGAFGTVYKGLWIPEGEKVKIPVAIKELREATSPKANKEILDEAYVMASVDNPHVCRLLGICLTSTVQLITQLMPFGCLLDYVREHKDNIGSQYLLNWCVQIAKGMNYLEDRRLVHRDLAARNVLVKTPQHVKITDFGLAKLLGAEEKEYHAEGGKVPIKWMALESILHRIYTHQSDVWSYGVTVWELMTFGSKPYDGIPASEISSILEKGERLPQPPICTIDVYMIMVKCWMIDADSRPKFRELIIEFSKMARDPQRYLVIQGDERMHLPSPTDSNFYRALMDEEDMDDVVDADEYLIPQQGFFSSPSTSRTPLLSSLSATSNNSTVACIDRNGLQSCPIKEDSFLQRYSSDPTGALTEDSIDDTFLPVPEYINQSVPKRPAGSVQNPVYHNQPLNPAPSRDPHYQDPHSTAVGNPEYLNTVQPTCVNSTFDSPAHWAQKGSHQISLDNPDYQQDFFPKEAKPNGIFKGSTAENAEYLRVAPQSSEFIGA
mitogen activated protein kinase kinase 1 (MAP2K1), sequence (Q02750 whole entry): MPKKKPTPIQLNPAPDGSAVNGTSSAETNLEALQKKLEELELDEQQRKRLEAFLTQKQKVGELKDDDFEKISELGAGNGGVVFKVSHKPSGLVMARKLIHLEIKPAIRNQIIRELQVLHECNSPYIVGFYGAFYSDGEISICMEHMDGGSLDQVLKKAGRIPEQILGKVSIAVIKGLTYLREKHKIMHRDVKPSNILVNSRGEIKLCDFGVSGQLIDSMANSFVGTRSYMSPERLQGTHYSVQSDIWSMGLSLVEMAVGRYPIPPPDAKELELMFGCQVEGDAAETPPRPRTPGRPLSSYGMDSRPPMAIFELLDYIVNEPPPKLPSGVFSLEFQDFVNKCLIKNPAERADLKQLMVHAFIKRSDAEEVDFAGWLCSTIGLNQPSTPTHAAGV
feline sarcoma kinase (FES), sequence (P07332 whole entry): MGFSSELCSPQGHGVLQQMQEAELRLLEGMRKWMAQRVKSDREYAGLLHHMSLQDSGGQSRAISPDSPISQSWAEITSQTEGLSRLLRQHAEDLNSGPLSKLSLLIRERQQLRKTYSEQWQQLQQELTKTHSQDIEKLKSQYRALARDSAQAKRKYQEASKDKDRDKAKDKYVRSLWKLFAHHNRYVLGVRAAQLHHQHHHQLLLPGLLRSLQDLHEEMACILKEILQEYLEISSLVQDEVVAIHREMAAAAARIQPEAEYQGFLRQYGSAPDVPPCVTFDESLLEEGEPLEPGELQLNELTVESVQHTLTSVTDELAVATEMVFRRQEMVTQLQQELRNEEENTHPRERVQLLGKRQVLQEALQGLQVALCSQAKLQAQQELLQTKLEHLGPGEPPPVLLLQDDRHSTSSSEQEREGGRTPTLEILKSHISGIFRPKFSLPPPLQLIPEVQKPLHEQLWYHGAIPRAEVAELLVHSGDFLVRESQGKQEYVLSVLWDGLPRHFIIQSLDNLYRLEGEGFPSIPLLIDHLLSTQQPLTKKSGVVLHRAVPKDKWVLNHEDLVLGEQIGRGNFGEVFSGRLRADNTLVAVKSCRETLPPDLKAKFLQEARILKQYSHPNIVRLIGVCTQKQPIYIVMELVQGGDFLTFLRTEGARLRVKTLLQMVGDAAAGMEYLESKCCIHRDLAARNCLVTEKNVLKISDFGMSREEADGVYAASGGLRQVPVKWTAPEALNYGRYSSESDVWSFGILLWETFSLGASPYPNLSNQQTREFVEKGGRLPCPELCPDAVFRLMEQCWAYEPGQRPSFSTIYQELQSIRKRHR
fibroblast growth factor 1 (FGFR1), sequence (P11362 22-822): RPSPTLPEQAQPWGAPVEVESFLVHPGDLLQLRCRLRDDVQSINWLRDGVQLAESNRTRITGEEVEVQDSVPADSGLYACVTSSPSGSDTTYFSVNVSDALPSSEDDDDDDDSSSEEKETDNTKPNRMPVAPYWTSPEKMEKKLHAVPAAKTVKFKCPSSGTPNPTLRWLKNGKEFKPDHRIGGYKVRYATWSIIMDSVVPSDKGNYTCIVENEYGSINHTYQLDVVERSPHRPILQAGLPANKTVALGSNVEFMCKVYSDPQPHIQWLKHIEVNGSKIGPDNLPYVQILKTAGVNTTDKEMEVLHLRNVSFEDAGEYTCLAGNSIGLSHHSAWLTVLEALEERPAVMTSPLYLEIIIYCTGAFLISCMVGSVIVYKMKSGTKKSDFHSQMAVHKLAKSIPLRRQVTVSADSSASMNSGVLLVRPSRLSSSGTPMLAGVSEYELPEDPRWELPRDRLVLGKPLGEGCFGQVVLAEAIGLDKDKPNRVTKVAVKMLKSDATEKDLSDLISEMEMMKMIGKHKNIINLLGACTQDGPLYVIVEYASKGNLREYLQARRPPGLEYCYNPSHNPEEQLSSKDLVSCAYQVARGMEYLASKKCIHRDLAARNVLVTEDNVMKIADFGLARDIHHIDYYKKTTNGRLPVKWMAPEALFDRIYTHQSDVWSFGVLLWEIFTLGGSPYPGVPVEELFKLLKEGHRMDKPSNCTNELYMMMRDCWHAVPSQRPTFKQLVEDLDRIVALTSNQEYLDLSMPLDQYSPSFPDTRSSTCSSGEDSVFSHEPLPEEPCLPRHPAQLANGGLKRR
TEK tyrosine kinase, sequence (Q02763 23-1124): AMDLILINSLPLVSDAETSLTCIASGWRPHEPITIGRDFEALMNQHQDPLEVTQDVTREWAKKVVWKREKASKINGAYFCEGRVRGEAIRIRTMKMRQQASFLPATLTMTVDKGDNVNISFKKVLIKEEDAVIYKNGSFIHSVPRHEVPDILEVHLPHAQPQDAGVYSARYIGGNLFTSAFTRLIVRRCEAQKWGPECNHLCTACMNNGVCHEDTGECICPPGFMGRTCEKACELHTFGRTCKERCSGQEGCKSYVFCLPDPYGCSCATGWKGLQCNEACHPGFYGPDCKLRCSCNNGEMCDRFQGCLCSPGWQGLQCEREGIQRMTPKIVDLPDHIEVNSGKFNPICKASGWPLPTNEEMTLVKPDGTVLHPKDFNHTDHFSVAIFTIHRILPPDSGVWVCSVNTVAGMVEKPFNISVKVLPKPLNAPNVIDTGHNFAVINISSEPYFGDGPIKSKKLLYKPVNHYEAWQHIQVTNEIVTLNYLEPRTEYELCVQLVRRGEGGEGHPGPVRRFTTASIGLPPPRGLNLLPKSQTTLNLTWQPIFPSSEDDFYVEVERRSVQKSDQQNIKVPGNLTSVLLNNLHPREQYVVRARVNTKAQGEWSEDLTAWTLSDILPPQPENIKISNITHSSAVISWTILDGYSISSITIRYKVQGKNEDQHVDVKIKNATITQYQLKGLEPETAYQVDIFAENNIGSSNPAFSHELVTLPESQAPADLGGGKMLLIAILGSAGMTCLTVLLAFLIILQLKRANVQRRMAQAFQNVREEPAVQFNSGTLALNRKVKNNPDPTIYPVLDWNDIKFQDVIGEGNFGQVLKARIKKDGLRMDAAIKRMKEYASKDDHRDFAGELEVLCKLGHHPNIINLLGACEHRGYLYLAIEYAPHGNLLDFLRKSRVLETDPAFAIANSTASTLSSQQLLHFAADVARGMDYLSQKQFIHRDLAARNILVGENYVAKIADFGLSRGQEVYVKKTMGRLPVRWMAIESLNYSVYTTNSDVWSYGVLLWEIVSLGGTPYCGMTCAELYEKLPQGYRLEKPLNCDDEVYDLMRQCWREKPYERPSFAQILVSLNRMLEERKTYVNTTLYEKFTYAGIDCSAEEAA
mitogen activated protein kinase kinase kinase 8 (MAP3K8), sequence (P41279 whole entry): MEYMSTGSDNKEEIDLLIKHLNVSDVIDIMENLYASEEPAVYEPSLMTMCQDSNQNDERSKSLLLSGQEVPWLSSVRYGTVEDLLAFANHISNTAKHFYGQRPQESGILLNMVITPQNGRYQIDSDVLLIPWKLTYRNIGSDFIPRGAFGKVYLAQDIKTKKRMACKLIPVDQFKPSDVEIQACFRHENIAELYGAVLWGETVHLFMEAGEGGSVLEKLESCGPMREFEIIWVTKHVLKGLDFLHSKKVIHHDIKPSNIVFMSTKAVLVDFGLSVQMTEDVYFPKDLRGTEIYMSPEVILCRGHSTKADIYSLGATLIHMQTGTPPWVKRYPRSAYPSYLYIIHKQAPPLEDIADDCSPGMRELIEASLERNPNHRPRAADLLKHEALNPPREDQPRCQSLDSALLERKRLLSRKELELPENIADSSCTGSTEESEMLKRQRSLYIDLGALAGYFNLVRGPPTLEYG

Row | SMILES | IC50 [3] | IC50 [4] | IC50 [5] | inhibition of phosphorylation at EGFR-Y1068 (western blot) [1] | inhibition of autophosphorylation at HER2-Y1248 (western blot) [2] | suppression of cell viability / inhibition in the high-throughput assay [20] | further results
1 | CC1=CC(=O)c2c(O)ccc(O)c2C1=O [Compound 6, 5,8-dihydroxy-2-methylnaphthalene-1,4-dione] | – | – | – | decreased; also recorded: inhibit the phosphorylation | significantly decreased HER2 activating phosphorylation to the same extent as lapatinib; also recorded: inhibit the phosphorylation | – | –
2 | Cc1cc(O)c2c(c1O)C(=O)C=CC2=O [Compound 7, 5,8-dihydroxy-6-methylnaphthalene-1,4-dione] | 0.51 µM | 0.32 µM | 0.29 µM | decreased; also recorded: inhibit the phosphorylation | significantly decreased HER2 activating phosphorylation to the same extent as lapatinib; also recorded: inhibit the phosphorylation | – | IC50 [6]: 123 to 2920 nM; fold decrease in potency versus the other cell lines [7]: 3-4 fold; inhibition at 10 µM [8]: ≥ 80%; inhibition at 10 µM [9]: ≥ 80%; kinase inhibition IKK B/E [10]: ≥ 80%; kinase inhibition AurK A/B [11]: ≥ 80%; inhibition at 10 µM [12]: ≥ 80%; kinase inhibition AKT1/2 [13]: ≥ 80%; inhibition at 10 µM [14]: ≥ 80%; inhibition at 10 µM [15]: ≥ 80%; inhibition at 10 µM [16]: ≥ 80%; inhibition at 10 µM [17]: ≥ 80%; inhibition at 10 µM [18]: ≥ 80%; kinase inhibition PLK1/3 [19]: ≥ 80%
3 | O=C1C=C(CBr)C(=O)c2c(O)ccc(O)c21 [Compound 9, 2-(bromomethyl)-5,8-dihydroxynaphthalene-1,4-dione] | 3.61 µM | 1.66 µM | 1.78 µM | decreased; also recorded: inhibit the phosphorylation | significantly decreased HER2 activating phosphorylation to the same extent as lapatinib; also recorded: inhibit the phosphorylation | – | –
4 | O=C1C=CC(=O)c2c(O)cc(CBr)cc21 [Compound 26, 5-hydroxy-7-bromomethylnaphthalene-1,4-dione] | – | – | – | – | did not show such an effect on auto-phosphorylation; also recorded: did not show notable inhibition of phosphorylation | showed notable inhibition | –
5 | CC1C(=O)c2cc([N+](=O)[O-])cc([N+](=O)[O-])c2C1=O (stereo not shown) [Compound 28, 2-methyl-4,6-dinitro-1H-indene-1,3(2H)-dione] | – | – | – | shows significant phosphorylation | shows significant phosphorylation | did not show notable growth inhibition | –

Further lines, with some results ahead:

Row | IC50 [3] | IC50 [4] | IC50 [5] | SMILES | inhibition of phosphorylation at EGFR-Y1068 (western blot) [1] | inhibition of autophosphorylation at HER2-Y1248 (western blot) [2] | suppression of cell viability / inhibition in the high-throughput assay [20] | further results
6 | 9.39 µM | 2.93 µM | 4.61 µM | Cc1ccc(O)c2c1C(=O)C=CC2=O [Compound 22, 5-hydroxy-8-methylnaphthalene-1,4-dione] | – | – | – | –
7 | – | 30.9 µM | – | Cc1cc(O)c2c(c1)C(=O)C=CC2=O [Compound 25, 5-hydroxy-7-methylnaphthalene-1,4-dione] | – | did not show such an effect on auto-phosphorylation; also recorded: did not show notable inhibition of phosphorylation | showed notable inhibition | –
8 | 7.3 µM | 4.94 µM | 3.18 µM | COc1cc(C)cc2c1C(=O)C=CC2=O [Compound 27, 5-methoxy-7-methylnaphthalene-1,4-dione] | – | did not show such an effect on auto-phosphorylation; also recorded: did not show notable inhibition of phosphorylation | showed notable inhibition | –
9 | 19.2 µM | 15.7 µM | 15.8 µM | CS(=O)(=O)CCNCc1ccc(-c2ccc3ncnc(Nc4ccc(OCc5cccc(F)c5)c(Cl)c4)c3c2)o1 [Lapatinib, reference compound] | – | – | – | viability at 10 µM ([20]; Homo sapiens, MCF7, 48 h): < 70%
